Laboratory results reported in ChEMBL document CHEMBL5715954, “Silencing c-Myc translation as a therapeutic strategy through targeting PI3Kδ and CK1ε in hematological malignancies” (Blood, 2017).

How the values were obtained:
Set-up in all cases: scale not given: the % may be the effect or the level left
[1] = biological target: T1, Tyrosine-protein kinase Tec (Homo sapiens) (UniProt P42680); assay: Inhibition of human TEC assessed as enzyme activity at 1 uM using poly[Glu:Tyr] (4:1) as substrate preincubated for 20 mins followed by [gamma-33P]-ATP addition and measured after 120 mins by radiometric Hot-SpotSM Kinase assay relative to control
T1 sequence (whole entry): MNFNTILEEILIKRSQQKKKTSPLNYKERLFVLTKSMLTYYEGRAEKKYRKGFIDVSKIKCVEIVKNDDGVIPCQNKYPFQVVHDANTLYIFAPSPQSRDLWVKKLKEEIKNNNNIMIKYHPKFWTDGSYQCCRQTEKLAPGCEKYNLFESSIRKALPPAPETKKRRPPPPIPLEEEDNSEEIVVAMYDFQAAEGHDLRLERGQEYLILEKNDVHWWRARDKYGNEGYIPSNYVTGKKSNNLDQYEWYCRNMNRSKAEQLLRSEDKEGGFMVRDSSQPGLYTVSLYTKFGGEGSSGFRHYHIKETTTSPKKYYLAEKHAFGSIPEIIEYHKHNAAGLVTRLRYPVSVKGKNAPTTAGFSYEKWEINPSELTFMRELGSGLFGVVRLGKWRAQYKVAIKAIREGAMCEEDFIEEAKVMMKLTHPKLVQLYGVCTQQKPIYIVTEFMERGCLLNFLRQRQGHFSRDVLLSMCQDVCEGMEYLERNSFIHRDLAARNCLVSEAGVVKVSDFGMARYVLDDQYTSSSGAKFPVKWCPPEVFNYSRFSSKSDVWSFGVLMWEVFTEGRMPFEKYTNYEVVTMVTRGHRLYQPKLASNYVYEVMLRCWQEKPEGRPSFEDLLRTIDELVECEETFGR

[2] = biological target: Serine/threonine-protein kinase PAK 2 (Homo sapiens) (UniProt Q13177); assay: Inhibition of human PAK2 assessed as enzyme activity at 1 uM using RRRLSFAEPG as substrate preincubated for 20 mins followed by [gamma-33P]-ATP addition and measured after 120 mins by radiometric Hot-SpotSM Kinase assay relative to control
Serine/threonine-protein kinase PAK 2 (Homo sapiens), sequence (Q13177 whole entry): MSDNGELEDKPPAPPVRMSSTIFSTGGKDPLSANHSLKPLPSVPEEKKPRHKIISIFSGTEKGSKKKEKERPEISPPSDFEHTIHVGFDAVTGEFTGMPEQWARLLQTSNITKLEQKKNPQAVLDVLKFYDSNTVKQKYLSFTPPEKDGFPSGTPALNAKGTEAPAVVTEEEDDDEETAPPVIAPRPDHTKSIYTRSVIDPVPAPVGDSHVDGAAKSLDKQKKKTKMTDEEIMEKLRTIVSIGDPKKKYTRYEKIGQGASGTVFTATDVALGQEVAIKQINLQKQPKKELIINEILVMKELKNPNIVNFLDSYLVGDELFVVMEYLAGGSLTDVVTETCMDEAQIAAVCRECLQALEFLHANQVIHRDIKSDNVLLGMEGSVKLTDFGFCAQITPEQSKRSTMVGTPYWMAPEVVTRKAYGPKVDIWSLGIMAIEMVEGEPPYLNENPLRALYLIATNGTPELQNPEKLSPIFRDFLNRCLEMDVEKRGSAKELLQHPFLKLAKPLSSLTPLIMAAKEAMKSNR

[3] = biological target: Tyrosine-protein kinase Lck (Homo sapiens) (UniProt P06239); assay: Inhibition of human LCK assessed as enzyme activity at 1 uM using poly[Glu:Tyr] (4:1) as substrate preincubated for 20 mins followed by [gamma-33P]-ATP addition and measured after 120 mins by radiometric Hot-SpotSM Kinase assay relative to control
Tyrosine-protein kinase Lck (Homo sapiens), sequence (P06239 2-509 limits assumed): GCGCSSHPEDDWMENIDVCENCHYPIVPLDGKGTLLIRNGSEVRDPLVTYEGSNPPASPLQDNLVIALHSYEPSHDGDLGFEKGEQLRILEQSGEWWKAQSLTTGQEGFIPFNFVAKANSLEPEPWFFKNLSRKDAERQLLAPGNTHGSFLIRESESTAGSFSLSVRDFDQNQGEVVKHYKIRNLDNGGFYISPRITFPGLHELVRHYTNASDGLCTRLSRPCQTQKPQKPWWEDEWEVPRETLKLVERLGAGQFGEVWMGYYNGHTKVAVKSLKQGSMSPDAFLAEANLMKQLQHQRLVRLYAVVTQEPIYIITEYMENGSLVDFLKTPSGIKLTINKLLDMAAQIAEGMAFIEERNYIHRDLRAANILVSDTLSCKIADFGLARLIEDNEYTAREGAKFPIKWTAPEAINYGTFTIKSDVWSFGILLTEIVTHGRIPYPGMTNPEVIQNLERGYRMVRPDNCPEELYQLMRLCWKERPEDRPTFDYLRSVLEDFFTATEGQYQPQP

[4] = biological target: Dual specificity protein kinase CLK3 (Homo sapiens) (UniProt P49761); assay: Inhibition of human CLK3 assessed as enzyme activity at 1 uM using myelin basic protein as substrate preincubated for 20 mins followed by [gamma-33P]-ATP addition and measured after 120 mins by radiometric Hot-SpotSM Kinase assay relative to control
Dual specificity protein kinase CLK3 (Homo sapiens), sequence (P49761 whole entry, looked up): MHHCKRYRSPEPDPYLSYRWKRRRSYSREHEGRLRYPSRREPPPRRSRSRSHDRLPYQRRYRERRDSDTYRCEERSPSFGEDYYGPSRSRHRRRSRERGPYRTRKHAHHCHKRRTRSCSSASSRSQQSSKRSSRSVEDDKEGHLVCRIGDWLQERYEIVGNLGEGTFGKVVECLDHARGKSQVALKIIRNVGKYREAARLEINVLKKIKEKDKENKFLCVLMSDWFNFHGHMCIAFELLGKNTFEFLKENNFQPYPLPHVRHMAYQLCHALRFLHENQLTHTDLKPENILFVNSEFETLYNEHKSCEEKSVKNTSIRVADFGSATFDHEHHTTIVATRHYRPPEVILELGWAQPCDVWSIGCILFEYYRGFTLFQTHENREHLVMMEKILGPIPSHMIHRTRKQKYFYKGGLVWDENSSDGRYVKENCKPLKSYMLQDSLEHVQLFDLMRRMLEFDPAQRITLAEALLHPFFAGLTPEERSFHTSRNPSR

[5] = biological target: Serine/threonine-protein kinase Nek4 (Homo sapiens) (UniProt P51957); assay: Inhibition of human NEK4 assessed as enzyme activity at 1 uM using myelin basic protein as substrate preincubated for 20 mins followed by [gamma-33P]-ATP addition and measured after 120 mins by radiometric Hot-SpotSM Kinase assay relative to control
Serine/threonine-protein kinase Nek4 (Homo sapiens), sequence (P51957 whole entry, looked up): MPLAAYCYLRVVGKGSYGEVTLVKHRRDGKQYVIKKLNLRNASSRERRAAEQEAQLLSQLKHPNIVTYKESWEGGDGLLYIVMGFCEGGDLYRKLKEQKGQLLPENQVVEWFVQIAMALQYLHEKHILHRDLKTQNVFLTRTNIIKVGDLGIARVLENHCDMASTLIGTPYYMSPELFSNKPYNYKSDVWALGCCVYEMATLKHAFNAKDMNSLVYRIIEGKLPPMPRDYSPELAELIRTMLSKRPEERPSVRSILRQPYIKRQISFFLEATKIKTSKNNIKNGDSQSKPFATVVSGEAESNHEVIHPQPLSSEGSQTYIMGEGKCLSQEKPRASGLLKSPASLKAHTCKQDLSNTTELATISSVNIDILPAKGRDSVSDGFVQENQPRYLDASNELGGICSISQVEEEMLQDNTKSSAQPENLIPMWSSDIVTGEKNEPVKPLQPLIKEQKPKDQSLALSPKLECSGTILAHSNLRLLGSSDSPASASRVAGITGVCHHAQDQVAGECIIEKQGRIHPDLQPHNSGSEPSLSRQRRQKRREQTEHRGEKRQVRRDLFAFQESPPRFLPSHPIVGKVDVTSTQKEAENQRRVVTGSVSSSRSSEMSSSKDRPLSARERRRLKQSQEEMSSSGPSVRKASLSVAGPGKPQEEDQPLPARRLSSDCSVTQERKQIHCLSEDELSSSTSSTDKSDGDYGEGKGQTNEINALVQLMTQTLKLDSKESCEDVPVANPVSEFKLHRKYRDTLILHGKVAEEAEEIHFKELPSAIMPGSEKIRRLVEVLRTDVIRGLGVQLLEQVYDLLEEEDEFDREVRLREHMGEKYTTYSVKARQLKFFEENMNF

[6] = biological target: Leukocyte tyrosine kinase receptor (Homo sapiens) (UniProt P29376); assay: Inhibition of human TYK1/LTK assessed as enzyme activity at 1 uM using EAIYAAPFAKKK as substrate preincubated for 20 mins followed by [gamma-33P]-ATP addition and measured after 120 mins by radiometric Hot-SpotSM Kinase assay relative to control
Leukocyte tyrosine kinase receptor (Homo sapiens), sequence (P29376 whole entry): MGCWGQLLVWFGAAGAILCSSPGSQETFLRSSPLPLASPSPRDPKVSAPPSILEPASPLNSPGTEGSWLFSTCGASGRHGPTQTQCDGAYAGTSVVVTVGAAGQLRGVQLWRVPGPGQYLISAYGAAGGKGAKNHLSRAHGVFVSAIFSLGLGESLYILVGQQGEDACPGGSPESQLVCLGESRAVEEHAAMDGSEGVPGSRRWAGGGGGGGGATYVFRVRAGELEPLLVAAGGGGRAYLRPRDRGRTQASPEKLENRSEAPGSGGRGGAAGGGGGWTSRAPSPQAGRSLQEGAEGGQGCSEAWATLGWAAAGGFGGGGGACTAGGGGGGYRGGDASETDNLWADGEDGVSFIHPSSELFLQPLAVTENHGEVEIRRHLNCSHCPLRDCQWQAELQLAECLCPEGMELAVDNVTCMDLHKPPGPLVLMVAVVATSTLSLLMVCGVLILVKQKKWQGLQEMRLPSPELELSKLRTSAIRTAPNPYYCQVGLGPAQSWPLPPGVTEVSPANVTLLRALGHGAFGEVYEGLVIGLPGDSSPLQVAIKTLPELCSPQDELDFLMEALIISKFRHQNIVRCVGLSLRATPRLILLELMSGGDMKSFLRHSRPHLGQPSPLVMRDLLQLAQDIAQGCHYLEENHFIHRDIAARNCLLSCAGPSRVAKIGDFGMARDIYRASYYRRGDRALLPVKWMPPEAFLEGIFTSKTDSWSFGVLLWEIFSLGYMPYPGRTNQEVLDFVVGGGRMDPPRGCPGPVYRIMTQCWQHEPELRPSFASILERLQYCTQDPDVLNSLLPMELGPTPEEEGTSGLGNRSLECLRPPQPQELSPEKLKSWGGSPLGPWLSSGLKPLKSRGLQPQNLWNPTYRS

[7] = biological target: T2, Protein kinase C zeta type (Homo sapiens) (UniProt Q05513); assay: Inhibition of human PKCzeta assessed as enzyme activity at 1 uM using ERMRPRKRQGSVRRRV as substrate preincubated for 20 mins followed by [gamma-33P]-ATP addition and measured after 120 mins by radiometric Hot-SpotSM Kinase assay relative to control
T2 sequence (whole entry): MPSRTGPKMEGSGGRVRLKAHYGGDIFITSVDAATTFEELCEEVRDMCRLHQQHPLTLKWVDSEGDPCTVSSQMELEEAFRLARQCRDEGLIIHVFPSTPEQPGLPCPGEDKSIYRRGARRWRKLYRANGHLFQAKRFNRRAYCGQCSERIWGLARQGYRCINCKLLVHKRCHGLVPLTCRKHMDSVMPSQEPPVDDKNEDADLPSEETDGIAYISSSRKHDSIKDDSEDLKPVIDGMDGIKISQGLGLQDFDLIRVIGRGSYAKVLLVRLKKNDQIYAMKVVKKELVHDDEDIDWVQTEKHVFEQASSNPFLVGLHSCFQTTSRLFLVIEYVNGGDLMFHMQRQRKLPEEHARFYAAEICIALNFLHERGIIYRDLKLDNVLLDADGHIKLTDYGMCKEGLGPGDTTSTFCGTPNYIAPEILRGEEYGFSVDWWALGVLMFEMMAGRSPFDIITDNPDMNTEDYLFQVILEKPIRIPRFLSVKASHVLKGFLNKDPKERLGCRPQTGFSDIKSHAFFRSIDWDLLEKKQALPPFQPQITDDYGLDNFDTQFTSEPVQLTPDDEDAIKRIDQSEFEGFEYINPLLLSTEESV

[8] = biological target: Serine/threonine-protein kinase VRK2 (Homo sapiens) (UniProt Q86Y07); assay: Inhibition of human VRK2 assessed as enzyme activity at 1 uM using casein as substrate preincubated for 20 mins followed by [gamma-33P]-ATP addition and measured after 120 mins by radiometric Hot-SpotSM Kinase assay relative to control
Serine/threonine-protein kinase VRK2 (Homo sapiens), sequence (Q86Y07 whole entry): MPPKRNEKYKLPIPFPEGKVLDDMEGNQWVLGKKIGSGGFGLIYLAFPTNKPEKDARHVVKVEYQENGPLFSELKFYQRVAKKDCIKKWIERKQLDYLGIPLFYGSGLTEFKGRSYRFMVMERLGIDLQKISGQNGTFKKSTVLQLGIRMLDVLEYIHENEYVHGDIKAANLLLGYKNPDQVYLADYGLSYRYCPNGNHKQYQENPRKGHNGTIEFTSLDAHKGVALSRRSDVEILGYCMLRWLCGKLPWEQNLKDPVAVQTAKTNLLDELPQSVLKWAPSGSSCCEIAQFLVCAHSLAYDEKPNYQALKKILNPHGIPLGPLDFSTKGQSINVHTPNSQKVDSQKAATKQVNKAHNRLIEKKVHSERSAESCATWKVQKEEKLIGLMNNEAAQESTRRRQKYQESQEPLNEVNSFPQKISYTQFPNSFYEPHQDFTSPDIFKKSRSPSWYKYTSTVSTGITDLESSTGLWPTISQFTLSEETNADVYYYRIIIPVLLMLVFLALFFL

[9] = biological target: T3, Calcium/calmodulin-dependent protein kinase type IV (Homo sapiens) (UniProt Q16566); assay: Inhibition of human CAMK4 assessed as enzyme activity at 1 uM using KKLNRTLSFAEPG as substrate preincubated for 20 mins followed by [gamma-33P]-ATP addition and measured after 120 mins by radiometric Hot-SpotSM Kinase assay relative to control
T3 sequence (whole entry): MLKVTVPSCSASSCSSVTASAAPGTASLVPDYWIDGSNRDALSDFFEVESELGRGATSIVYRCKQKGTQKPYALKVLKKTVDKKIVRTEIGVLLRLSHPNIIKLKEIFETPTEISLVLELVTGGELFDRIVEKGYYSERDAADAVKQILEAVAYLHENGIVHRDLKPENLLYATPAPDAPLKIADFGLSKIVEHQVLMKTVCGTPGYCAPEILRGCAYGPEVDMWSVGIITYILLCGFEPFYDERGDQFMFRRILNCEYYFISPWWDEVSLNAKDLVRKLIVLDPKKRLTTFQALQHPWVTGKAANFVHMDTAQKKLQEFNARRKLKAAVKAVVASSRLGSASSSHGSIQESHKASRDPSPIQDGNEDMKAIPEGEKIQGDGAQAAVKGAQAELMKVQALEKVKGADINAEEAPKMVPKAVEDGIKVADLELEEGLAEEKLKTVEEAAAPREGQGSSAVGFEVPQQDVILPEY

[10] = biological target: Calcium/calmodulin-dependent protein kinase type II subunit alpha (Homo sapiens) (UniProt Q9UQM7); assay: Inhibition of human CAMK2a assessed as enzyme activity at 1 uM using KKALRRQETVDAL as substrate preincubated for 20 mins followed by [gamma-33P]-ATP addition and measured after 120 mins by radiometric Hot-SpotSM Kinase assay relative to control
Calcium/calmodulin-dependent protein kinase type II subunit alpha (Homo sapiens), sequence (Q9UQM7 whole entry): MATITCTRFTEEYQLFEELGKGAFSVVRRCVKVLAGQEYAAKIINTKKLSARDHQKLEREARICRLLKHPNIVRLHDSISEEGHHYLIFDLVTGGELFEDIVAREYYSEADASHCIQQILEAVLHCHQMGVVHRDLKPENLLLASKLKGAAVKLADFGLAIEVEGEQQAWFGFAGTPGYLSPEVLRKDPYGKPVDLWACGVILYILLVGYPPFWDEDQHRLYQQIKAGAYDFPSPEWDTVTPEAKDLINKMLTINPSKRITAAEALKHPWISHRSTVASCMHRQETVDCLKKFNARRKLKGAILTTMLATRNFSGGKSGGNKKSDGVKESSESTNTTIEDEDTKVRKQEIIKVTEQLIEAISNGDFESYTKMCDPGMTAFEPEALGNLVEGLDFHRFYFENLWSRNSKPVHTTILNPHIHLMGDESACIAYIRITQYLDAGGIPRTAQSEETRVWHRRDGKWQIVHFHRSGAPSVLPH

Compound | Activity [1] [%] | Activity [2] [%] | Activity [3] [%] | Activity [4] [%] | Activity [5] [%] | Activity [6] [%] | Activity [7] [%] | Activity [8] [%] | Activity [9] [%] | Activity [10] [%]
C[C@H](Nc1ncnc2nc[nH]c12)c1cc2cccc(Cl)c2c(=O)n1-c1ccccc1 | 95.8 | 100 | 94.7 | 92.3 | 92.2 | 97.4 | 89.9 | 88.3 | 80.7 | 95.4
CC[C@H](Nc1ncnc2[nH]cnc12)c1nc2cccc(F)c2c(=O)n1-c1ccccc1 | 99.3 | 103 | 88.5 | 89 | 95.5 | 94.8 | 91.5 | 98.3 | 82.5 | 101
CC(C)Oc1ccc(-c2nn([C@@H](C)c3oc4ccc(F)cc4c(=O)c3-c3cccc(F)c3)c3ncnc(N)c23)cc1F [UMBRALISIB] | 98.1 | 96.8 | 96.8 | 93.7 | 87.8 | 92.5 | 93.6 | 87 | 75.4 | 100
